Results on 13 compounds are retold here after patent US8759361B2, “2-phenoxy pyrimidinone analogues” (Neurogen Corporation, priority 2006, dated 2014).

For one test, the target named is VR (Homo sapiens, UniProt Q8NER1). The settings on record: binds to VR with no more than moderate affinity; cited from earlier work.
A further test has as its target T1, human capsaicin receptor (Homo sapiens, UniProt Q8NER1).
T1 construct: expressed in transfected cells
In words: Calcium mobilization assay, determination of antagonist activity (Example 6). Conditions: cells expressing human capsaicin receptor, capsaicin-induced fluorescence response. It is filed as cell-based. How it is done:
A cDNA encoding full length human capsaicin receptor (SEQ ID NO:1, 2 or 3 of U.S. Pat. No. 6,482,611) is subcloned in the plasmid pBK-CMV (Stratagene, La Jolla, Calif.) for recombinant expression in mammalian cells.
Human embryonic kidney (HEK293) cells are transfected with the pBK-CMV expression construct encoding the full length human capsaicin receptor using standard methods. The transfected cells are selected for two weeks in media containing G418 (400 μg/ml) to obtain a pool of stably transfected cells. Independent clones are isolated from this pool by limiting dilution to obtain clonal stable cell lines for use in subsequent experiments.
Cells transfected with expression plasmids (as described in Example 4) and thereby expressing human capsaicin receptor are seeded and grown to 70-90% confluency in FALCON black-walled, clear-bottomed 96-well plates (#3904, BECTON-DICKINSON, Franklin Lakes, N.J.). The culture medium is emptied from the 96 well plates and FLUO-3 AM calcium sensitive dye (Molecular Probes, Eugene, Oreg.) is added to each well (dye solution: 1 mg FLUO-3 AM, 440 μL DMSO and 440 μl 20% pluronic acid in DMSO, diluted 1:250 in Krebs-Ringer HEPES (KRH) buffer (25 mM HEPES, 5 mM KCl, 0.96 mM NaH2PO4, 1 mM MgSO4, 2 mM CaCl2, 5 mM glucose, 1 mM probenecid, pH 7.4), 50 μl diluted solution per well). Plates are covered with aluminum foil and incubated at 37° C. for 1-2 hours in an environment containing 5% CO2. After the incubation, the dye is emptied from the plates, and the cells are washed once with KRH buffer, and resuspended in KRH buffer.
To measure the ability of a test compound to agonize or antagonize a calcium mobilization response in cells expressing capsaicin receptors to capsaicin or other vanilloid agonist, the EC50 of the agonist capsaicin is first determined. An additional 20 μl of KRH buffer and 1 μl DMSO is added to each well of cells, prepared as described above. 100 μl capsaicin in KRH buffer is automatically transferred by the FLIPR instrument to each well. Capsaicin-induced calcium mobilization is monitored using either FLUOROSKAN ASCENT (Labsystems; Franklin, Mass.) or FLIPR (fluorometric imaging plate reader system; Molecular Devices, Sunnyvale, Calif.) instruments. Data obtained between 30 and 60 seconds after agonist application are used to generate an 8-point concentration response curve, with final capsaicin concentrations of 1 nM to 3 μM. KALEIDAGRAPH software (Synergy Software, Reading, Pa.) is used to fit the data to the equation: y=a*(1/(1+(b/x)^c)) to determine the 50% excitatory concentration (EC50) for the response. In this equation, y is the maximum fluorescence signal, x is the concentration of the agonist or antagonist (in this case, capsaicin), a is the Emax, b corresponds to the EC50 value and c is the Hill coefficient. Determination of Agonist Activity
Test compounds are dissolved in DMSO, diluted in 20 μl KRH buffer so that the final concentration of test compounds in the assay well is between 1 μM and 5 μM, and added to cells prepared as described above. The 96 well plates containing prepared cells and test compounds are incubated in the dark, at room temperature for 0.5 to 6 hours. It is important that the incubation not continue beyond 6 hours. Just prior to determining the fluorescence response, 100 μl capsaicin in KRH buffer at twice the EC50 concentration determined as described above is automatically added by the FLIPR instrument to each well of the 96 well plate for a final sample volume of 200 μl and a final capsaicin concentration equal to the EC50. The final concentration of test compounds in the assay wells is between 1 μM and 5 μM. […] The concentration of antagonist required to provide a 50% decrease, relative to the response observed in the presence of capsaicin and without antagonist, is the IC50 for the antagonist, and is preferably below 1 micromolar, 100 nanomolar, 10 nanomolar or 1 nanomolar.

Structures are written as SMILES. Read-outs that look alike come from different tables or passages of the source.

T1 sequence (Q8NER1 whole entry): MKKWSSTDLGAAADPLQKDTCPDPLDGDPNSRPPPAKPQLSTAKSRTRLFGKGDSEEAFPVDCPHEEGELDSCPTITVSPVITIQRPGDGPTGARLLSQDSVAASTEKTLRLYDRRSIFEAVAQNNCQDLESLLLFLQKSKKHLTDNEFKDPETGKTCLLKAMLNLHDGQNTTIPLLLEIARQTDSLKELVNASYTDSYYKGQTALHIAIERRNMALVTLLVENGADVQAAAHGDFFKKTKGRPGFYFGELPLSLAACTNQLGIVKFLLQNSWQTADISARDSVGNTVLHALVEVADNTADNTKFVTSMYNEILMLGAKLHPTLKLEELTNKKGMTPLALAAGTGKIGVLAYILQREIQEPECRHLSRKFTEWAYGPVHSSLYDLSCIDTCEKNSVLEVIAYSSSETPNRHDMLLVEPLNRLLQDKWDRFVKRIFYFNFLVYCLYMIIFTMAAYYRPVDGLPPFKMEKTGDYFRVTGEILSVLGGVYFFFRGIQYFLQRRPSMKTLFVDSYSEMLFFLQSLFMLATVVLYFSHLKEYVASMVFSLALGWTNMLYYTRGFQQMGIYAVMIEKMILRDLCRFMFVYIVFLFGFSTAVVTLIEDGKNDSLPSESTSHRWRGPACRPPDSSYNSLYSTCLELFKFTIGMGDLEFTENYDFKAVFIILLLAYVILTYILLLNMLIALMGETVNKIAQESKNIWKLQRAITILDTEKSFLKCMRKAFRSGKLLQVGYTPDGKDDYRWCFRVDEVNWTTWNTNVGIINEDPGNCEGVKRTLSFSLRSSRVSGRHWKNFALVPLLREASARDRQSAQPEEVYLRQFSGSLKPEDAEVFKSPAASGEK
Chain of VR (Q8NER1 whole entry): as above

Take `Cl.Cl.Cl.Cl.Cl.Cl.N.N.N.N.N.N.N.N.N.N.N.N.N.N.[O-2].[O-2].[Ru+3].[Ru+3].[Ru+4]` [ruthenium red]: on VR, the Ki (as a rule, the equilibrium dissociation constant of an inhibitor or competing ligand from its target) was at least 140000 nM.
Consider `Cn1cnc2c(=O)n(-c3ccc(F)cc3)c(Oc3cc(F)cc(F)c3F)nc21` [Compound 20, 1-(4-fluorophenyl)-9-methyl-2-(2,3,5-trifluorophenoxy)-1,9-dihydro-6H-purin-6-one], for which the IC50 – broadly, the midpoint of a concentration-inhibition curve – at human capsaicin receptor (read-out: IC50) is at most 100 nM.
Regarding `Cn1cnc2c(=O)n(-c3ccc(F)cc3)c(Oc3c(F)ccc(F)c3F)nc21` [Compound 24, 1-(4-fluorophenyl)-9-methyl-2-(2,3,6-trifluorophenoxy)-1,9-dihydro-6H-purin-6-one], at human capsaicin receptor (read-out: IC50), the half-inhibitory concentration (IC50) was at most 100 nM.
Turning to `O=c1c2ncsc2nc(Oc2cc(F)cc(C(F)(F)F)c2)n1-c1ccc(F)cc1` [Compound 44, 6-(4-fluorophenyl)-5-[3-fluoro-5-(trifluoromethyl)phenoxy][1,3]thiazolo[5,4-d]pyrimidin-7(6H)-one], at human capsaicin receptor (read-out: IC50), the 50% inhibitory concentration (IC50) is at most 100 nM.
The same measure, in the same setting: the same measure for `Cc1cccc(Oc2nc3c(ncn3C)c(=O)n2-c2ccc(F)cc2)c1C` [Compound 63, 2-(2,3-dimethylphenoxy)-1-(4-fluorophenyl)-9-methyl-1,9-dihydro-6H-purin-6-one]: at most 100 nM; for `Cn1cnc2c(=O)n(-c3ccc(F)cc3)c(Oc3c(F)cc(F)cc3F)nc21` [Compound 12, 1-(4-fluorophenyl)-9-methyl-2-(2,4,6-trifluorophenoxy)-1,9-dihydro-6H-purin-6-one]: at most 100 nM.
Still for that read-out and setting: the same measure for `CCn1cnc2c(=O)n(-c3ccc(F)cc3)c(Oc3ccc(F)c(F)c3F)nc21` [Compound 11, 9-ethyl-1-(4-fluorophenyl)-2-(2,3,4-trifluorophenoxy)-1,9-dihydro-6H-purin-6-one]: at most 100 nM; for `O=c1c2ncccc2nc(Oc2ccc(F)cc2F)n1-c1ccc(F)cc1` [Compound 31, 2-(2,4-difluorophenoxy)-3-(4-fluorophenyl)pyrido[3,2-d]pyrimidin-4(3H)-one]: at most 100 nM.
Consider `O=c1c2ncsc2nc(Oc2cccc(F)c2F)n1-c1ccc(F)cc1` [Compound 34, 5-(2,3-difluorophenoxy)-6-(4-fluorophenyl)[1,3]thiazolo[5,4-d]pyrimidin-7(6H)-one], for which the 50% inhibitory concentration (IC50) on human capsaicin receptor (read-out: IC50) was at most 100 nM.
As for `Cn1cnc2c(=O)n(-c3ccc(Br)cc3)c(Oc3ccc(F)c(F)c3F)nc21` [Compound 1, 1-(4-Bromophenyl)-9-methyl-2-(2,3,4-trifluorophenoxy)-1,9-dihydro-6H-purin-6-one], the 50% inhibitory concentration (IC50) on human capsaicin receptor (read-out: IC50 determined as described in Example 6) was at most 100 nM.
As for `Cn1cnc2c(=O)n(-c3ccc(Cl)cc3)c(Oc3cc(F)c(F)c(F)c3)nc21` [Compound 30, 1-(4-chlorophenyl)-9-methyl-2-(3,4,5-trifluorophenoxy)-1,9-dihydro-6H-purin-6-one], the half-maximal inhibitory concentration (IC50) at human capsaicin receptor (read-out: IC50) was at most 100 nM.
For the compound `Cn1cnc2c(=O)n(-c3ccc(Cl)cc3)c(Oc3cccc(C(F)(F)F)c3F)nc21` [Compound 42, 1-(4-chlorophenyl)-2-[2-fluoro-3-(trifluoromethyl)phenoxy]-9-methyl-1,9-dihydro-6H-purin-6-one], at human capsaicin receptor (read-out: IC50), the IC50 is at most 100 nM.
On the same count and under the same terms, the result for `Cc1csc2c(=O)n(-c3ccc(F)cc3)c(Oc3ccc(F)c(F)c3F)nc12` [Compound 53, 3-(4-fluorophenyl)-7-methyl-2-(2,3,4-trifluorophenoxy)thieno[3,2-d]pyrimidin-4(3H)-one] reads at most 100 nM.
